Source: ChEMBL document CHEMBL1201862, “PubChem BioAssay data set” (2004)
Activity calls are given as the source filed them.

Experiments:
[1] = molecular target: Sphingosine 1-phosphate receptor 4 (Homo sapiens, UniProt O95977); experiment: S1P4 receptor agonists, human, late-stage follow-up, cell-based, fluorescence, synthesized compounds (AID 463107); format: functional
[2] = molecular target: T1, Dual specificity protein phosphatase 3 (Homo sapiens, UniProt P51452); experiment: SAR VHR1 absorbance Assay for In Vitro dose response studies. [Related pubchem assays (depositor defined):AID1654, AID1661, AID1878, AID1992, AID2004]
[3] = molecular target: T2, Dual specificity protein phosphatase 6 (Rattus norvegicus, UniProt Q64346); format: functional;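 also: confirmatory in vitro dose-response testing of MKP-3 inhibition; recombinant His-tagged MKP-3 made in E. coli BL21 with OMFP substrate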
T2 sequence (Q64346 whole entry): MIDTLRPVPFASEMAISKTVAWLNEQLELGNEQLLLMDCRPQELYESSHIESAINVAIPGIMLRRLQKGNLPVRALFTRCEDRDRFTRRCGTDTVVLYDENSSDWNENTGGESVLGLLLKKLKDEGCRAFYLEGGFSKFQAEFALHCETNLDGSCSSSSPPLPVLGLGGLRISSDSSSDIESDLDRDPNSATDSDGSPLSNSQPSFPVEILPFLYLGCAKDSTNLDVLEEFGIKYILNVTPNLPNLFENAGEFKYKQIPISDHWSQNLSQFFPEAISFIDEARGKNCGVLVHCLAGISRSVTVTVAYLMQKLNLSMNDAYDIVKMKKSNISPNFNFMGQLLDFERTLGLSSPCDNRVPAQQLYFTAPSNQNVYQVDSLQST

[4] = molecular target: T3, Tyrosine-protein phosphatase non-receptor type 7 (Homo sapiens, UniProt P35236); experiment: redox-dependent HePTP inhibition, mechanism study, biochemical, fluorescence (AID 2068); format: functional
T3 sequence (P35236 whole entry): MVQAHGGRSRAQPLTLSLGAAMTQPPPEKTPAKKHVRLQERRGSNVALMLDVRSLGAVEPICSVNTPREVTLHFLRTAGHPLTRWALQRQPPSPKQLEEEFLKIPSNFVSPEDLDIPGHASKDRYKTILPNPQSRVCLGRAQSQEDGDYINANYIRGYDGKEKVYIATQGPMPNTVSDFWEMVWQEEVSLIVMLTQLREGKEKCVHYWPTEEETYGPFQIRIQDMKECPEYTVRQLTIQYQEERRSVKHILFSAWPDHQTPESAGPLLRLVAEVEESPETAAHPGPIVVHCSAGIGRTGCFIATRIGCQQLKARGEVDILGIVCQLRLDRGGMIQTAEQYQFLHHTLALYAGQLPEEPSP

[5] = molecular target: T1, Dual specificity protein phosphatase 3; experiment: SAR VHR1 Fluorescent Assay for In Vitro dose response studies. [Related pubchem assays (depositor defined):AID1654, AID1661, AID1878, AID1992, AID2004, AID2070, AID2085]; format: functional
[6] = molecular target: T4, Rac GTPase-activating protein 1 (Homo sapiens, UniProt Q9H0H5); experiment: MgcRacGAP GTPase-activating activity inhibitors, confirmation, biochemical, ADP Hunter fluorescence, primary and confirmatory (AID 624330); format: functional
T4 sequence (Q9H0H5 whole entry): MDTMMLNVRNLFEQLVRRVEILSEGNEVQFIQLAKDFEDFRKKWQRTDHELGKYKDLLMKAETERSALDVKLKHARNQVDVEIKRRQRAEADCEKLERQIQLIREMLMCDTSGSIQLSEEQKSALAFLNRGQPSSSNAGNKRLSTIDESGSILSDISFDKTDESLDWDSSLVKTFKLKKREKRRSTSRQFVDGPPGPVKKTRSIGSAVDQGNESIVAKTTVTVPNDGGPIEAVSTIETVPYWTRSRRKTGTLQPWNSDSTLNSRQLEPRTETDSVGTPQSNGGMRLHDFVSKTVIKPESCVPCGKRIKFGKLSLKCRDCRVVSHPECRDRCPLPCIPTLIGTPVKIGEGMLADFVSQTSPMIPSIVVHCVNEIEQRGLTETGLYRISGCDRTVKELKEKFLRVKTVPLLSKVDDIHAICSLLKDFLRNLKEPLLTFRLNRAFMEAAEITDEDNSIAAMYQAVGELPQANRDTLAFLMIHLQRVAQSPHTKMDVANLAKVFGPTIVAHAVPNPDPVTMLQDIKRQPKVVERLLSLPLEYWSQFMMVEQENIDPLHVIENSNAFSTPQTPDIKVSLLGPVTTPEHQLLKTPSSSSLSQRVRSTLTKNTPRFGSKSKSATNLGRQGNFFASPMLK

[7] = molecular target: Envelope glycoprotein gp160 (Human immunodeficiency virus 1, UniProt Q6QLK5); experiment: inhibitors of HIV fusion peptide binding, primary screen, biochemical, uHTS, fluorescence dequenching (AID 1986)
Genome polyprotein = Genome polyprotein (dengue virus type 2, UniProt P29990); experiment: Dengue-2 NS5 methyltransferase inhibitors, primary screen, biochemical, confirmation dose response (AID 588689); format: functional
[8] = inhibitors of firefly luciferase expression or activity, dose response, H4 neuroglioma cells, luminescence (AID 1990); format: functional, cell-based
X-box-binding protein 1 = X-box-binding protein 1 (Homo sapiens, UniProt P17861); format: functional, Cricetulus griseus;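 also: confirmatory dose-response counter-screen serving a CHOP assay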
[9] = inhibitors of SNCA 5'UTR-driven reporter translation, confirmation, H4 neuroglioma cells, luminescence (AID 1988); format: functional, cell-based
Protein Rev = Protein Rev (Human immunodeficiency virus type 1 group M subtype B (isolate HXB2)(HIV-1), UniProt P04618); experiment: inhibitors of Rev binding to RRE RNA, dose response, biochemical, fluorescence polarization, HIV-1 (AID 434976); design: species or system Human immunodeficiency virus 1
[10] = molecular target: Female germline-specific tumor suppressor gld-1 (Caenorhabditis elegans, UniProt Q17339); experiment: inhibitors of GLD-1 binding to TGE RNA, dose response, biochemical, fluorescence polarization, C. elegans (AID 2802);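 also: fluorescence polarization of labeled TGE RNA bound by purified gld-1 protein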
Bcl-2-like protein 10 = Bcl-2-like protein 10 (Homo sapiens, UniProt Q9HD36); experiment: displacers of TR3 peptide from Bcl-B, primary screen, selectivity assay for Bfl-1 inhibitor project, biochemical, fluorescence polarization, FITC-TR3 peptide (AID 748);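 also: fluorescence polarization from a fluorescein-labelled TR3 peptide binding purified Bcl-B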
Estrogen receptor beta [11] = molecular target: T5, Estrogen receptor beta (Homo sapiens, UniProt Q92731); experiment: ERβ–SRC-3 coactivator interaction inhibitors, confirmation, orthogonal assay, biochemical, ELISA, streptavidin-HRP readout (AID 1060)
Estrogen receptor beta [12] = molecular target: T5, Estrogen receptor beta
Cytochrome P450 2C9 = Cytochrome P450 2C9 (Homo sapiens, UniProt P11712)
Cysteine protease ATG4B = molecular target: T6, Cysteine protease ATG4B (Homo sapiens, UniProt Q9Y4P1); format: functional;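 also: Fluorescence-based dose-response confirmation assay measuring inhibition of ATG4B activity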
T6 sequence (Q9Y4P1 whole entry): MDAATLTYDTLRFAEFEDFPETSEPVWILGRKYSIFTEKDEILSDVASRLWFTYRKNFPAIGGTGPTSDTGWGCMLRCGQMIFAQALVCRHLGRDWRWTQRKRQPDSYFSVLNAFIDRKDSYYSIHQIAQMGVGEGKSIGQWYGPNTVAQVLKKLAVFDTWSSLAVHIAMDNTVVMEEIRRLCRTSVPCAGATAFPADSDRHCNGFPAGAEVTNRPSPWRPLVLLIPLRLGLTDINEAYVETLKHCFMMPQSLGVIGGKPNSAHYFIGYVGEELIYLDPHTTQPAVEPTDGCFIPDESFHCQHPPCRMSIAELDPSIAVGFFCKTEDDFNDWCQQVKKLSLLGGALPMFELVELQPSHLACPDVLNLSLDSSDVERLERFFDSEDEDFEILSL

Phospholipase A2 = Phospholipase A2 (Homo sapiens, UniProt P04054); format: functional;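 also: confirmatory dose-response counterscreen on phospholipase A2, testing hits that came from an ultra-high-throughput screen for ATG4B inhibitors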
[13] = molecular target: G-protein coupled receptor 55 (Homo sapiens, UniProt Q9Y2T6); experiment: GPR55 agonists via beta-arrestin recruitment, primary screen, imaging, U2OS cells, beta-arrestin-GFP redistribution (AID 1961); format: functional
[14] = cytotoxicity toward NIH3T3 fibroblasts, dose response, counter-screen, cell-based, ATP luminescence, mouse fibroblasts (AID 2010); format: functional;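 also: cells exposed to compound for about 90 hours before reading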
INS1 = experiment: beta cell apoptosis inhibitors, cytokine rescue, dose response, luminescence, retest (AID 449756); format: functional, cell-based; conditions: Rattus norvegicus;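 also: cell death triggered by IL-1 beta plus TNF-alpha plus IFN-gamma mixture; protective hits raise ATP signal compared with cytokine alone wells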
[15] = inhibitors of intracellular T. cruzi replication, confirmation, NIH3T3 host cells, beta-gal luminescence (AID 2044); format: functional, cell-based;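 also: intracellular parasites grown in NIH/3T3 mouse fibroblasts as host cells; luminescent beta-galactosidase reporter signal from transgenic T. cruzi replicating inside host cells; inhibitors lower the luminescence signal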
[16] = molecular target: T7, DNA repair and recombination protein RAD54-like (Homo sapiens, UniProt Q92698); experiment: inhibitors of human RAD54 branch migration, confirmation, biochemical, fluorescence, cherry-picked samples, dose series (AID 651657); format: functional
T7 sequence (Q92698 whole entry): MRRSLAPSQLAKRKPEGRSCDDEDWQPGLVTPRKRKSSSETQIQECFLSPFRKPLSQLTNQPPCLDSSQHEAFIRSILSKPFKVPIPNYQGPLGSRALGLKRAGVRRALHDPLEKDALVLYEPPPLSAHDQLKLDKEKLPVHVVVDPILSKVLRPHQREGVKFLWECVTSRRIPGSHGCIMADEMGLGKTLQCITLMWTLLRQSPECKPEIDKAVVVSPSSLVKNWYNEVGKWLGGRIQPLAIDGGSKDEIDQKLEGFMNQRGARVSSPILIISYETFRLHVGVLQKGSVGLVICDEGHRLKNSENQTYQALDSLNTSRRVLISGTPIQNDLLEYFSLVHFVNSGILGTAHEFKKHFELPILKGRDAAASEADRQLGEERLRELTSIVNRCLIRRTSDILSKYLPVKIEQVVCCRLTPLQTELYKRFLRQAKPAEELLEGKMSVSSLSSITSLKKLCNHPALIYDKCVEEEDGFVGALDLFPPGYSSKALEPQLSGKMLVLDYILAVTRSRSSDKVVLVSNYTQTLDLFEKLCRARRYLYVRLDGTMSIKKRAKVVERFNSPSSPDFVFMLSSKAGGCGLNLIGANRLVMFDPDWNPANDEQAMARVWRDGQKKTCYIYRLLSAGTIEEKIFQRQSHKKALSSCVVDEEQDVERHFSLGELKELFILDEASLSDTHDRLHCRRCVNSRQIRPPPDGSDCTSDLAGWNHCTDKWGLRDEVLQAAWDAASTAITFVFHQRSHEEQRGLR

[17] = MDA-MB-231 cell growth inhibition, dose response, cytotoxicity control for RAD54 inhibitor project, CellTiter-Glo luminescence, cherry-pick (AID 651692); format: functional, cell-based
[18] = HEK293T cytotoxicity, dose response, cytotoxicity control for miR-122 modulator project, cell-based, activator set, cherry-pick (AID 720690); format: functional;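 also: HEK293T human cells scored for general mammalian cytotoxicity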
Melanocortin receptor 4 = Melanocortin receptor 4 (Homo sapiens, UniProt P32245); format: functional, cell-based;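 also: Cell-based assay with luminescence read-out, confirmatory dose-response testing for agonist activity of biased ligands at MC4R; human U2OS cells with tagged receptor and beta-arrestin; potency of agonists that increase receptor coupling to beta-arrestin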
[19] = molecular target: Neurotensin receptor type 1 (Homo sapiens, UniProt P30989); format: functional;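 also: Image-based confirmatory dose-response assay measuring agonist activity at NTR1; NTR1-expressing U2OS osteosarcoma cells imaged for beta-arrestin GFP spot formation; agonist potency where compounds increase beta-arrestin recruitment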
[20] = growth suppression of beta-catenin-knockout colon cells, dose response, cell-based, HCT116, human colon tumor (AID 1045); format: functional;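 also: HCT116 colon tumor cells with beta catenin knocked out; cells exposed to compound for 60 hours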
Streptokinase A = molecular target: T8, Streptokinase A (Streptococcus pyogenes serotype M1, UniProt P10520); experiment: S. pyogenes streptokinase expression inhibitors, potency, dose response, plasminogen activation absorbance, OD405 (AID 1914); format: functional, Streptococcus pyogenes M1 GAS;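 also: secreted streptokinase activity via plasminogen activation per viability signal from cell pellet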
T8 sequence (P10520 whole entry): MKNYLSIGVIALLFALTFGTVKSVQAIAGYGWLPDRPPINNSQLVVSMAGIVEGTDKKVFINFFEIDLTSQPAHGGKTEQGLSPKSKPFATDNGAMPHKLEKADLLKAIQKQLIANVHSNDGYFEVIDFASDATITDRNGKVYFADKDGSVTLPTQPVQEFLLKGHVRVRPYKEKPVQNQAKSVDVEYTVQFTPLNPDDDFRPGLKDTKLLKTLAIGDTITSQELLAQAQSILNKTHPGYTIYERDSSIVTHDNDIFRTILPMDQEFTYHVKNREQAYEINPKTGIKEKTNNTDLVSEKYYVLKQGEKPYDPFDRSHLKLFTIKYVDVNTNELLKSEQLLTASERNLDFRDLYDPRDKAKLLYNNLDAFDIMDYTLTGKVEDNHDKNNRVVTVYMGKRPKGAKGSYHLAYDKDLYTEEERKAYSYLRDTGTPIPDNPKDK

[21] = molecular target: Scavenger receptor class B member 1 (Mus musculus, UniProt Q61009); experiment: inhibitors of SR-BI mediated HDL lipid uptake, dose response, ldlA[mSR-BI] cells, fluorescence, cherry pick (AID 493194); format: functional, cell-based;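 also: cellular uptake of fluorescent DiI-labeled HDL measured as cell fluorescence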
[22] = test system: Streptococcus sp. 'group A'; experiment: growth inhibition of control SK(-) GAS strain, dose response, counter-screen for streptokinase expression inhibitor project, luminescence, kanamycin, BacTiterGlo, confirmation (AID 1900); format: functional, organism-based
[23] = growth suppression of PTEN-null colon cells, dose response, cell-based, HCT116 PTEN knockout (AID 1047); format: functional;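 also: HCT116 colon tumor cells with PTEN knocked out; cells exposed to compound for 60 hours before readout; potency for loss of cell viability measured by luminescence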
Streptococcus = experiment: Group A Streptococcus viability loss, dose response, counter-screen for streptokinase expression inhibitor project, luminescence, BacTiterGlo (AID 1915); format: functional, organism-based;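 also: potency for reduction of bacterial viability or growth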

T1 sequence (P51452 whole entry): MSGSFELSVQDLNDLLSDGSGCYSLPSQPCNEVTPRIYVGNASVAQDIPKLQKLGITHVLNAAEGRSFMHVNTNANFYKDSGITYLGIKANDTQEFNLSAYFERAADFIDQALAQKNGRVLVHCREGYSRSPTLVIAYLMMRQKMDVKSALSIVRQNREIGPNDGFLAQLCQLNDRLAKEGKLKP
T5 sequence (Q92731 whole entry): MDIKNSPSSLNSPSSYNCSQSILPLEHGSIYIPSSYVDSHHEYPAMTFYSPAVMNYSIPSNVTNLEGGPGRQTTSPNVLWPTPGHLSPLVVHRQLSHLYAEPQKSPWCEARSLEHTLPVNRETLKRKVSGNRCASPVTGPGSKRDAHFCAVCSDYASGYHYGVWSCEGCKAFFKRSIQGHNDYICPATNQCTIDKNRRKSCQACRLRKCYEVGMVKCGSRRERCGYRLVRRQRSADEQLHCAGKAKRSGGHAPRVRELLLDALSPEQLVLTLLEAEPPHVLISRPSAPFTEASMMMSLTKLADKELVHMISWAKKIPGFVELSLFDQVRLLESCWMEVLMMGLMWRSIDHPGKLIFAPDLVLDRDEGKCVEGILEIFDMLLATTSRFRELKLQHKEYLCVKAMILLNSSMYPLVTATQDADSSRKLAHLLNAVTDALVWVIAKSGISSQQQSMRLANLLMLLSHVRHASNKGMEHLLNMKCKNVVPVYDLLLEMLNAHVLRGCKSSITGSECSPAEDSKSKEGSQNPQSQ
Cytochrome P450 2C9, sequence (P11712 whole entry): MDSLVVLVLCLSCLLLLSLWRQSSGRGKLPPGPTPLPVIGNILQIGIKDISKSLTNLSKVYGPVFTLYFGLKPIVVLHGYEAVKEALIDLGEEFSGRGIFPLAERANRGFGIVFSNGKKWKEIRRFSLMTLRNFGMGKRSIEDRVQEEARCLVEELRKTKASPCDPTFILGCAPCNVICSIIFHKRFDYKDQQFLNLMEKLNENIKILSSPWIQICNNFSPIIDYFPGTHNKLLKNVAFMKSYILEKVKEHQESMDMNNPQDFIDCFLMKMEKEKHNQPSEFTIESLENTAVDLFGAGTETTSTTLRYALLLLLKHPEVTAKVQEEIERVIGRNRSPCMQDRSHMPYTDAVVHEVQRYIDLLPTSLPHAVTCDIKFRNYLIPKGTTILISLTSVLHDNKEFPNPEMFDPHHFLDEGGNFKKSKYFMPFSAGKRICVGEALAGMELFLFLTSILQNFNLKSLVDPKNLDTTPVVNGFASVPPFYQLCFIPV
Envelope glycoprotein gp160, sequence (Q6QLK5 whole entry, the tested form may be a part): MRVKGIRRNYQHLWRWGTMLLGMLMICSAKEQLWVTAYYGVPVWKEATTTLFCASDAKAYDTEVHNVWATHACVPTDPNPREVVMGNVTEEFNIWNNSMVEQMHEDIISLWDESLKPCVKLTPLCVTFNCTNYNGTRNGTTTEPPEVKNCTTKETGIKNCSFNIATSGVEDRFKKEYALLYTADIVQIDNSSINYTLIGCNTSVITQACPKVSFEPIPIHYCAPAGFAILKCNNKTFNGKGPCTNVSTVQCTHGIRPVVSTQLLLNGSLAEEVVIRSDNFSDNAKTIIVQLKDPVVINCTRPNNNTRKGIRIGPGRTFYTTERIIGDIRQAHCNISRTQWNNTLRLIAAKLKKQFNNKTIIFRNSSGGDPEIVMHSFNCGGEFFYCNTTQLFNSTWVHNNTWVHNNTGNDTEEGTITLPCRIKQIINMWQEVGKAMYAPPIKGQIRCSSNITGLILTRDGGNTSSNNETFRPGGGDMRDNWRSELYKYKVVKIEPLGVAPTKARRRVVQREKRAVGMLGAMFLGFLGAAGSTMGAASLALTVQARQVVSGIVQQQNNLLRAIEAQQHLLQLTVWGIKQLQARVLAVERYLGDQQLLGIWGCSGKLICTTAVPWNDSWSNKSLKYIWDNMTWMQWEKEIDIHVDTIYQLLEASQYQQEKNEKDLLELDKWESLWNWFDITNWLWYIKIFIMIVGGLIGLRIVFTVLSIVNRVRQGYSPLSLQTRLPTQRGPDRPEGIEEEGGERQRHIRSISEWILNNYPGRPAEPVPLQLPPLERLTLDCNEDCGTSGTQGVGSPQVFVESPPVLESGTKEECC
Melanocortin receptor 4, sequence (P32245 whole entry): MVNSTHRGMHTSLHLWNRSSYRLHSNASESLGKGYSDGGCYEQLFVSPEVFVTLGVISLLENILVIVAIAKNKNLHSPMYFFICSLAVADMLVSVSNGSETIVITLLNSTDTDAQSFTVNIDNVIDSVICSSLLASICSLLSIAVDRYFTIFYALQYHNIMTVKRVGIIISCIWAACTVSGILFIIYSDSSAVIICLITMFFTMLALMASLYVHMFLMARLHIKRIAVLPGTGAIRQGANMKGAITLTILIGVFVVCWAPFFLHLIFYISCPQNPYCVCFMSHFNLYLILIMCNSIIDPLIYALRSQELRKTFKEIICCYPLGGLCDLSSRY
Scavenger receptor class B member 1, sequence (Q61009 whole entry): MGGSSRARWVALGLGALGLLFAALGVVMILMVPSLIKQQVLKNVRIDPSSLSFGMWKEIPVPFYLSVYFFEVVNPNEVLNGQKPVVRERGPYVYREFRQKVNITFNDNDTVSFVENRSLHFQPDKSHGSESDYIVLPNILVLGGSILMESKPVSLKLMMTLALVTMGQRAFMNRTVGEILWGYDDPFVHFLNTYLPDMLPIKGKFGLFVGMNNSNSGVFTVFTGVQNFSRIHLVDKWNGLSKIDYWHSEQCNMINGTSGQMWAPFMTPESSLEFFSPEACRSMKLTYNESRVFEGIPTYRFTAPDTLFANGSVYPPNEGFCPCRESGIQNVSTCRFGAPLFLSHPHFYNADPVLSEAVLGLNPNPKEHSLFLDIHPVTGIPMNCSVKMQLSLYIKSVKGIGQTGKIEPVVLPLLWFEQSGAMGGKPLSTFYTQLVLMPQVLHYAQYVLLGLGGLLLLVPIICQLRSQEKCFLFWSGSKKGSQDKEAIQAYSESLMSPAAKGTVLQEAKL
Genome polyprotein, sequence (P29990 2492-3391 limits assumed): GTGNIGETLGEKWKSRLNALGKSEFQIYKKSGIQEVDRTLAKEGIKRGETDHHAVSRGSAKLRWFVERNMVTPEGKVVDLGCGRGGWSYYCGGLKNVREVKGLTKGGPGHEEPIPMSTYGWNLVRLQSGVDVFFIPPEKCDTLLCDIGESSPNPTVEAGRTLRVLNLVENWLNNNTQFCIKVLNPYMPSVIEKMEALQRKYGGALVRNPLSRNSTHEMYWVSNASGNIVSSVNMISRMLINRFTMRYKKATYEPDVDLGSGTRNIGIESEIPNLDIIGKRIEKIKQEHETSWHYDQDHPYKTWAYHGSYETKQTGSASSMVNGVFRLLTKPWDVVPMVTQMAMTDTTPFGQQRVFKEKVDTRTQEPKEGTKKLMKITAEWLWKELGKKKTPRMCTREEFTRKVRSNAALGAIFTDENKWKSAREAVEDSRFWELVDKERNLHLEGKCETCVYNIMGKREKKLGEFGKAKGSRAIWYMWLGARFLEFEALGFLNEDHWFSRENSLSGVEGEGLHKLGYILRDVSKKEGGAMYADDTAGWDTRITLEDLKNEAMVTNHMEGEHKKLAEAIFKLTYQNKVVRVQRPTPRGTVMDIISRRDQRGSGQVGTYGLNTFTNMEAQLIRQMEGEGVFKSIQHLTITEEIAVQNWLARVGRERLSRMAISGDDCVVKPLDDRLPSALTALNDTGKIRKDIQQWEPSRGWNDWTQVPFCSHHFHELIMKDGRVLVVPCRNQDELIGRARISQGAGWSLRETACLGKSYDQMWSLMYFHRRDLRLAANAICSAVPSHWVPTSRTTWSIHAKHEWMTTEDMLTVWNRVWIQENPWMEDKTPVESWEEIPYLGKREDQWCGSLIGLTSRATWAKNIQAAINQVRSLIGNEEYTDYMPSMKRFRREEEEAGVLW
X-box-binding protein 1, sequence (P17861 whole entry): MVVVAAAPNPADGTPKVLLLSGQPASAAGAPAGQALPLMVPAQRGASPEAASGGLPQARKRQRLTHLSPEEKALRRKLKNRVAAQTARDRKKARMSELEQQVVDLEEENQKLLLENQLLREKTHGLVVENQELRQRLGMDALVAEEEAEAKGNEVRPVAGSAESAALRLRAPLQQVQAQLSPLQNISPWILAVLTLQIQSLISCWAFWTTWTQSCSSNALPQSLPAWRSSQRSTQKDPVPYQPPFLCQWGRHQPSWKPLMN
Neurotensin receptor type 1, sequence (P30989 whole entry): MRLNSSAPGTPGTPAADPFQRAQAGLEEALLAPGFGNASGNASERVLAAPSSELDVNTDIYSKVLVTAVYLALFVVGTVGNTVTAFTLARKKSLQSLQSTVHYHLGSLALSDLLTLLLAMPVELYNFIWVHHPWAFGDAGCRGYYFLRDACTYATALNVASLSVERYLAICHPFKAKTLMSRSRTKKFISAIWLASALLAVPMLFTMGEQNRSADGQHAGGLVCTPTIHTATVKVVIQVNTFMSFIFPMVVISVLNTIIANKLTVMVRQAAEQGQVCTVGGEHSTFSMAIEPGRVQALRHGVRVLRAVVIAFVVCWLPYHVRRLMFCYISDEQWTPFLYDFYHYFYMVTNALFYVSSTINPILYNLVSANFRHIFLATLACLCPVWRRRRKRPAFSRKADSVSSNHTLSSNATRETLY
Protein Rev, sequence (P04618 whole entry): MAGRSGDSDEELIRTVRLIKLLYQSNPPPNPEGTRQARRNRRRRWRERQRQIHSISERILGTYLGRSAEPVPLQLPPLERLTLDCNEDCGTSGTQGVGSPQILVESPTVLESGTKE
Bcl-2-like protein 10, sequence (Q9HD36 whole entry): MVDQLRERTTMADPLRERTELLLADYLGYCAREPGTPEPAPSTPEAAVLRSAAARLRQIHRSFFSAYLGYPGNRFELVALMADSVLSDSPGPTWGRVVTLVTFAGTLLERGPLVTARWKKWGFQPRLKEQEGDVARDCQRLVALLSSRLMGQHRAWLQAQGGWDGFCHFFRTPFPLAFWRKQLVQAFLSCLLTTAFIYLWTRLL
Phospholipase A2, sequence (P04054 whole entry): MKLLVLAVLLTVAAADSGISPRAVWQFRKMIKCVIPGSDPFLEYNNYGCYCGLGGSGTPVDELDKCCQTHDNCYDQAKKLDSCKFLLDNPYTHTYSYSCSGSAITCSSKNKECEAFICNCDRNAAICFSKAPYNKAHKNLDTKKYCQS

Cc1ccc(OCCCOc2ccc(C)nc2[N+](=O)[O-])c([N+](=O)[O-])n1
EC50 [1]: > 50 µM (inactive)

Fc1ccc(OCCn2cc(C(=S)N3CCCCC3)c3ccccc32)cc1
IC50 [2]: > 100 µM (inactive)
IC50 [3]: > 99 µM (inactive)
IC50 [4]: 47.2 µM (active)
IC50 [5]: > 99 µM (inactive)

CN1C(=O)/C(=C/c2ccc(C(=O)Nc3ccc(O)cc3C(=O)O)cc2)SC1=S
IC50 [6]: 55.1 µM (active)
IC50 [7]: 11.3 µM (active)
IC50 (Genome polyprotein): 31.8 µM (active)

CC(C)Cn1c(=O)c2ccccc2n2c(SCC(=O)N3c4ccccc4CC3C)nnc12 (centres undefined)
EC50 [8]: 36 µM (active)
Absolute IC50 (XBP1) (X-box-binding protein 1): 10 µM
EC50 [9]: > 120 µM (not active)

c1cc2c3c(cccc3c1)C(N1CCOCC1)=N2
IC50 (Protein Rev): 29.2 µM (not active)
IC50 [10]: 8.44 µM (active)

CCOc1ccc2[nH]c(=O)c(=O)[nH]c2c1
IC50 (Bcl-2-like protein 10): > 50 µM (inactive)
IC50 (Estrogen receptor beta [11]): 12.2 µM (not active)
IC50 (Estrogen receptor beta [12]): > 50 µM (not active)

COc1cc(/C=C2/C(=N)N3C=CSC3=NC2=O)ccc1OCCCOc1c(C)cccc1C
AC50 (Cytochrome P450 2C9): 2 µM (inconclusive)
IC50 (Cysteine protease ATG4B): 7.86 µM (active)
IC50 (Phospholipase A2): 3.11 µM (active)
EC50 [13]: 4.7 µM (active)

Cc1cc(C)cc(OCC(O)CN2CCC(CN3C(=O)c4cccc5cccc(c45)C3=O)CC2)c1 (centres undefined)
EC50 [14]: 9.92 µM (active)
AC50 (INS1): 5.59 µM (active)
EC50 [15]: 1.82 µM (active)
AC50 [16]: 7.63 µM (active)
AC50 [17]: 23.6 µM (active)
AC50 [18]: 15.9 µM (active)
EC50 (Melanocortin receptor 4): > 89.2 µM (inactive)
EC50 [19]: 18.6 µM (active)

COc1ccc(-c2nc(-c3ccc4c(c3)OCO4)[nH]c2-c2ccc(OC)cc2)cc1
EC50 [20]: 19.2 µM (active)
EC50 (Streptokinase A): 2.07 µM (active)
AC50 [21]: 18.1 µM (active)
EC50 [22]: 2.62 µM (active)
EC50 [23]: 16.7 µM (active)
EC50 (Streptococcus): > 150 µM (not active)
